Experimental data: the kinase profiling compilation of Christmann-Franck et al. (2016)

Assays:
Assay in all cases: KINOMEscan competition binding
Settings in all cases: compound 10.0 µM
TAOK3 (human) = TAOK3 (human) (UniProt Q9H2K8)
MERTK (human) = MERTK (human) (UniProt Q12866)
AKT3 (human) = AKT3 (human) (UniProt Q9Y243)
PIM3 (human) = PIM3 (human) (UniProt Q86V86)
AAK1 (human) = AAK1 (human) (UniProt Q2M2I8)
MAPK10 (human) = MAPK10 (human) (UniProt P53779)
NUAK2 (human) = NUAK2 (human) (UniProt Q9H093)
STK35 (human) = STK35 (human) (UniProt Q8TDR2)
FGFR4 (human) = FGFR4 (human) (UniProt P22455)
Chain of FGFR4 (human) (P22455 whole entry, looked up): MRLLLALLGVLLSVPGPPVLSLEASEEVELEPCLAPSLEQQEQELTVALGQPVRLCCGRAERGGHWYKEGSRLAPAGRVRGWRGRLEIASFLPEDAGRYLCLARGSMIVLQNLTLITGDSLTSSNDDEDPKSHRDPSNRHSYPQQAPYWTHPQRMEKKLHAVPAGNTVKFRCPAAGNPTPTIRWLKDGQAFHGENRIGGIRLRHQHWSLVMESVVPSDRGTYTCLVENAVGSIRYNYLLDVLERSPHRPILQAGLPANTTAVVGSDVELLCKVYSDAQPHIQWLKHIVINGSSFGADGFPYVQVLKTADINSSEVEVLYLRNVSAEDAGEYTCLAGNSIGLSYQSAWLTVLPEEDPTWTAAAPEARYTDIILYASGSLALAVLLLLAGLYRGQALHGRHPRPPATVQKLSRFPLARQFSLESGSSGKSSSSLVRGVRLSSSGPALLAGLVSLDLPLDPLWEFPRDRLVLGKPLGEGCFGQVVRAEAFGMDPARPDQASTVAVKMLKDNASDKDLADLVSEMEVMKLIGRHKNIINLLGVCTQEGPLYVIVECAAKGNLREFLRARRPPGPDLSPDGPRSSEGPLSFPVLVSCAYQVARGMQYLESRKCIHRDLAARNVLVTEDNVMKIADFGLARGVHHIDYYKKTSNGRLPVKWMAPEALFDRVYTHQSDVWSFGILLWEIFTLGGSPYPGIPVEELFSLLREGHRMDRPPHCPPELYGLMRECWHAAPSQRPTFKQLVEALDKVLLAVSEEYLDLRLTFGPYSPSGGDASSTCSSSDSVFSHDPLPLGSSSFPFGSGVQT

CAMKK2 (human) = CAMKK2 (human) (UniProt Q96RR4)
CSNK1G2 (human) = CSNK1G2 (human) (UniProt P78368)
SIK1 (human) = SIK1 (human) (UniProt P57059)
IKBKB (human) = IKBKB (human) (UniProt O14920)
RPS6KA2 KD1 (human) = RPS6KA2 KD1 (human) (UniProt Q15349)
PTK2 (human) = PTK2 (human) (UniProt Q05397)
MAP3K7 (human) = MAP3K7 (human) (UniProt O43318)
NLK (human) = NLK (human) (UniProt Q9UBE8)
MYO3A (human) = MYO3A (human) (UniProt Q8NEV4)
MAP3K9 (human) = MAP3K9 (human) (UniProt P80192)
AKT2 (human) = AKT2 (human) (UniProt P31751)
MYLK4 (human) = MYLK4 (human) (UniProt Q86YV6)
GSK3A (human) = GSK3A (human) (UniProt P49840)
CDK15 (human) = CDK15 (human) (UniProt Q96Q40)
PIP5K1A (human) = PIP5K1A (human) (UniProt Q99755)
Chain of PIP5K1A (human) (Q99755 whole entry, looked up): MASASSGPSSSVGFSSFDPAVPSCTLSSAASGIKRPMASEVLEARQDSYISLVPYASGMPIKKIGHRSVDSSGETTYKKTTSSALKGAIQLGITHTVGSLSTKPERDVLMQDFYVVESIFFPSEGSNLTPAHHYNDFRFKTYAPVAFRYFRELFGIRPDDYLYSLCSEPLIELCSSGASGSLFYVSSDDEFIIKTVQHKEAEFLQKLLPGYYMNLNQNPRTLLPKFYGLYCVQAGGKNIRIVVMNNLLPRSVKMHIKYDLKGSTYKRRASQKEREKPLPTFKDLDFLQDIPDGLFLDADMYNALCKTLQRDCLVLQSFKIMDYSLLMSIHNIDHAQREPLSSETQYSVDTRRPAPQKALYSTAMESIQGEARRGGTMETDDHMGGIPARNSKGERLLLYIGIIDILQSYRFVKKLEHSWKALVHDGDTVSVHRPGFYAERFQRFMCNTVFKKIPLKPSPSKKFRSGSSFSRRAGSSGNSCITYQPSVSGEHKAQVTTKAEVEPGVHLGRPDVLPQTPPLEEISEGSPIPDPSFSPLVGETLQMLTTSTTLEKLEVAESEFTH

ACVR1 (human) = ACVR1 (human) (UniProt Q04771)
AURKC (human) = AURKC (human) (UniProt Q9UQB9)
Chain of AURKC (human) (Q9UQB9 whole entry, looked up): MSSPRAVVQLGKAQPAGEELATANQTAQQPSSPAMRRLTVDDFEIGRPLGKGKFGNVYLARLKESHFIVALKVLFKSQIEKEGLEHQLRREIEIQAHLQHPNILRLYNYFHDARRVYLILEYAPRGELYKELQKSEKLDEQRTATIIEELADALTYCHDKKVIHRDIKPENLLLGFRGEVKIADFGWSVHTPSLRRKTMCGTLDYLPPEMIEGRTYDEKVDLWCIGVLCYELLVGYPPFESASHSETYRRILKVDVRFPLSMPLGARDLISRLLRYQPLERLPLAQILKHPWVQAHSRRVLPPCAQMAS

CAMK2A (human) = CAMK2A (human) (UniProt Q9UQM7)
FES (human) = FES (human) (UniProt P07332)
NEK2 (human) = NEK2 (human) (UniProt P51955)
TGFBR1 (human) = TGFBR1 (human) (UniProt P36897)
Chain of TGFBR1 (human) (P36897 whole entry, looked up): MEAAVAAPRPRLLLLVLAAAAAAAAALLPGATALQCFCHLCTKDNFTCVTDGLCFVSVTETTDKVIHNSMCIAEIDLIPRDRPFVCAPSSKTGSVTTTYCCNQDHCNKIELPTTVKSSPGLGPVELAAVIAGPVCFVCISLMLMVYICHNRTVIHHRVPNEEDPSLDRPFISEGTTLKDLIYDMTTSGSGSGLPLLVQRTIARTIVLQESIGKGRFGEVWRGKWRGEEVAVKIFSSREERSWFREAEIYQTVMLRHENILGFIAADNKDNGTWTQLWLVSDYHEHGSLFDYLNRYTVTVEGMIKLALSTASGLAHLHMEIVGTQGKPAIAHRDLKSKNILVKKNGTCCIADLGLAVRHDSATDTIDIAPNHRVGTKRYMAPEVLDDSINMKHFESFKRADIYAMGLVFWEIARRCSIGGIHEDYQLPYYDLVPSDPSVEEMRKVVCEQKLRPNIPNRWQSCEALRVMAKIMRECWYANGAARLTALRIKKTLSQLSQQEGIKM

EPHA6 (human) = EPHA6 (human) (UniProt Q9UF33)
STK4 (human) = STK4 (human) (UniProt Q13043)
Chain of STK4 (human) (Q13043 whole entry, looked up): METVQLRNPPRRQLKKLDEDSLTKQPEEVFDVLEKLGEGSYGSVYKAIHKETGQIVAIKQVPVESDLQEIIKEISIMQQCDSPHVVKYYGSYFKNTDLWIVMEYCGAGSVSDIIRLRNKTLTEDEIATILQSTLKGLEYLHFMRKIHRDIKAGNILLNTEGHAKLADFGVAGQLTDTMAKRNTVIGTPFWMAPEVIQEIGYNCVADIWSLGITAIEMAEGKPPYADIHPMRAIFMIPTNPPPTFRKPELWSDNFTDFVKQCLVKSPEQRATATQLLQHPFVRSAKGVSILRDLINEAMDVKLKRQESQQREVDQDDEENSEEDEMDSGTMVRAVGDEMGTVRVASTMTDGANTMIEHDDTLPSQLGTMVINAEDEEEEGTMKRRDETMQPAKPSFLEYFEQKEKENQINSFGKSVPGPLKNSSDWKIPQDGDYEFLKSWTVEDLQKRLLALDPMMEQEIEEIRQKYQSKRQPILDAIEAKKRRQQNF

EPHB4 (human) = EPHB4 (human) (UniProt P54760)
CDK19 (human) = CDK19 (human) (UniProt Q9BWU1)
STK24 (human) = STK24 (human) (UniProt Q9Y6E0)
CLK2 (human) = CLK2 (human) (UniProt P49760)
Chain of CLK2 (human) (P49760 whole entry, looked up): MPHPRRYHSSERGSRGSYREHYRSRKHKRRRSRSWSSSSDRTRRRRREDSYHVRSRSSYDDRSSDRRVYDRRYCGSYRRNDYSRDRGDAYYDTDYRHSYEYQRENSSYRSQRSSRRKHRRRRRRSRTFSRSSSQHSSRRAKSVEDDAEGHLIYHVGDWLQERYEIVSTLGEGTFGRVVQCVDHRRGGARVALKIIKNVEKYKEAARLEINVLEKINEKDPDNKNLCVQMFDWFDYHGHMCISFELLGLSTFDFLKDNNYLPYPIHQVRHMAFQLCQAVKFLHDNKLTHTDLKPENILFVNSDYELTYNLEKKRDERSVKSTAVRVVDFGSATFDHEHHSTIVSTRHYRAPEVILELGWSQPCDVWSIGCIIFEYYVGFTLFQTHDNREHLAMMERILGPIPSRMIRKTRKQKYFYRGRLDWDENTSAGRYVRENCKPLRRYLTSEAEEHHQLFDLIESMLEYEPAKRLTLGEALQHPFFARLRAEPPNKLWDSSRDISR

LCK (human) = LCK (human) (UniProt P06239)
Chain of LCK (human) (P06239 whole entry, looked up): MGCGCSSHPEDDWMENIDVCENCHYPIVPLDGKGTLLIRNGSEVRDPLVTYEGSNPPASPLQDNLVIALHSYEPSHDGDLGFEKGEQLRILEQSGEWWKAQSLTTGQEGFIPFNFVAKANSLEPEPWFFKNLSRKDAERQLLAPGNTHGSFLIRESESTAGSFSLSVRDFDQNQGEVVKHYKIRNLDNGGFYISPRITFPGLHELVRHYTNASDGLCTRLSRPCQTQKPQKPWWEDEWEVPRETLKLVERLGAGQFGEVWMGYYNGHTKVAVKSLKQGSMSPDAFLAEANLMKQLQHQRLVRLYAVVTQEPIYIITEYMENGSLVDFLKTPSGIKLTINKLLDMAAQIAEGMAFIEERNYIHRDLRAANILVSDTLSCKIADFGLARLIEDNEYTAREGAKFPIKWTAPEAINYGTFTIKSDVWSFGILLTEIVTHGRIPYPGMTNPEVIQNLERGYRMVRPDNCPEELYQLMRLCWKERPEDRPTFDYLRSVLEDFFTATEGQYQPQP

PKMYT1 (human) = PKMYT1 (human) (UniProt Q99640)
Chain of PKMYT1 (human) (Q99640 whole entry, looked up): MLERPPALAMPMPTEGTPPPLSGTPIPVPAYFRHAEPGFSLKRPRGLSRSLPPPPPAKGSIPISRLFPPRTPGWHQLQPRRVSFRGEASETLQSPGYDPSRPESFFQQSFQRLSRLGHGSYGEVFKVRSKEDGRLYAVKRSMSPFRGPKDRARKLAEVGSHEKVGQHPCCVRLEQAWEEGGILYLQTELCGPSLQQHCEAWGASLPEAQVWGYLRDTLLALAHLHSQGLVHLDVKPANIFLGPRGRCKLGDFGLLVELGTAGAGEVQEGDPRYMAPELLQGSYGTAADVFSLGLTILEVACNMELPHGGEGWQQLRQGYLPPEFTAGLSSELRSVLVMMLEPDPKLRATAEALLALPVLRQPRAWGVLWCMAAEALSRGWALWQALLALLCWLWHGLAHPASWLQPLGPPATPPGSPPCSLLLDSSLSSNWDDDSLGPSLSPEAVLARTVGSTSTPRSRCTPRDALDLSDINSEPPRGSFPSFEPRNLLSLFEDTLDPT

STK32C (human) = STK32C (human) (UniProt Q86UX6)
BMPR1B (human) = BMPR1B (human) (UniProt O00238)

Chain of AKT3 (human) (Q9Y243 whole entry, looked up): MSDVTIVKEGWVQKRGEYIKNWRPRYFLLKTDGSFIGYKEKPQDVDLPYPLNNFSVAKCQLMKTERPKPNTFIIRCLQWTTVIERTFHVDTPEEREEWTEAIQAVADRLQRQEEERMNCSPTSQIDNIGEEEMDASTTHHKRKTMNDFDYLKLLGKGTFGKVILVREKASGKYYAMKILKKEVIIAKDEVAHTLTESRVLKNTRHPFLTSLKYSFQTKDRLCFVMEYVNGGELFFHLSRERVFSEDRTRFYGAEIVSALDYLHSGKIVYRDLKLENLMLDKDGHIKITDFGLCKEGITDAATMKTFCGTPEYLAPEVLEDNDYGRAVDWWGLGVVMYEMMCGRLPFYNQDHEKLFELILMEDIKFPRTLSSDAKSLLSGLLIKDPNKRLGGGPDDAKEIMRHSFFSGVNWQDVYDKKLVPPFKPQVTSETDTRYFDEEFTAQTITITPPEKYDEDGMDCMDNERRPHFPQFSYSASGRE

| Compound | kinase still bound, per cent of control (MERTK (human)) | kinase still bound, per cent of control (AKT3 (human)) | kinase still bound, per cent of control (PIM3 (human)) | kinase still bound, per cent of control (AAK1 (human)) | kinase still bound, per cent of control (MAPK10 (human)) | kinase still bound, per cent of control (NUAK2 (human)) | kinase still bound, per cent of control (STK35 (human)) | kinase still bound, per cent of control (FGFR4 (human)) | kinase still bound, per cent of control (CAMKK2 (human)) | kinase still bound, per cent of control (CSNK1G2 (human)) | kinase still bound, per cent of control (SIK1 (human)) | kinase still bound, per cent of control (IKBKB (human)) | kinase still bound, per cent of control (RPS6KA2 KD1 (human)) | kinase still bound, per cent of control (PTK2 (human)) | kinase still bound, per cent of control (MAP3K7 (human)) | kinase still bound, per cent of control (NLK (human)) | kinase still bound, per cent of control (MYO3A (human)) | kinase still bound, per cent of control (MAP3K9 (human)) | kinase still bound, per cent of control (AKT2 (human)) | kinase still bound, per cent of control (MYLK4 (human)) | other results |
| --- | --- | --- | --- | --- | --- | --- | --- | --- | --- | --- | --- | --- | --- | --- | --- | --- | --- | --- | --- | --- | --- |
| CCC(=O)N1CCN(c2ccc(-n3c(=O)ccc4cnc5ccc(-c6cnc7ccccc7c6)cc5c43)cc2C(F)(F)F)CC1 | 53% | 77% | 96% | 75% | 31% | 100% | 18% | 21% | 85% | 100% | 80% | 61% | 100% | 14% | 47% | 25% | 100% | 84% | 100% | 83% | kinase still bound, per cent of control (TAOK3 (human)): 76%; kinase still bound, per cent of control (GSK3A (human)): 93%; kinase still bound, per cent of control (CDK15 (human)): 88%; kinase still bound, per cent of control (PIP5K1A (human)): 89%; kinase still bound, per cent of control (ACVR1 (human)): 28%; kinase still bound, per cent of control (AURKC (human)): 91%; kinase still bound, per cent of control (CAMK2A (human)): 93%; kinase still bound, per cent of control (FES (human)): 41%; kinase still bound, per cent of control (NEK2 (human)): 90%; kinase still bound, per cent of control (TGFBR1 (human)): 70%; kinase still bound, per cent of control (EPHA6 (human)): 75%; kinase still bound, per cent of control (STK4 (human)): 7.6%; kinase still bound, per cent of control (EPHB4 (human)): 85%; kinase still bound, per cent of control (CDK19 (human)): 1.2%; kinase still bound, per cent of control (STK24 (human)): 100%; kinase still bound, per cent of control (CLK2 (human)): 65%; kinase still bound, per cent of control (LCK (human)): 77%; kinase still bound, per cent of control (PKMYT1 (human)): 52%; kinase still bound, per cent of control (STK32C (human)): 100% |
| CCCS(=O)(=O)Nc1ccc(F)c(C(=O)c2c[nH]c3ncc(-c4ccc(Cl)cc4)cc23)c1F | 60% | 100% | 100% | 100% | 91% | 98% | 100% | 100% | 100% | 88% | 2.8% | 100% | 39% | 63% | 69% | 81% | 57% | 52% | 76% | 0.45% | kinase still bound, per cent of control (TAOK3 (human)): 74%; kinase still bound, per cent of control (BMPR1B (human)): 67%; kinase still bound, per cent of control (GSK3A (human)): 54%; kinase still bound, per cent of control (CDK15 (human)): 96%; kinase still bound, per cent of control (PIP5K1A (human)): 100%; kinase still bound, per cent of control (ACVR1 (human)): 100%; kinase still bound, per cent of control (CAMK2A (human)): 100%; kinase still bound, per cent of control (FES (human)): 41%; kinase still bound, per cent of control (NEK2 (human)): 71%; kinase still bound, per cent of control (TGFBR1 (human)): 53%; kinase still bound, per cent of control (EPHA6 (human)): 100%; kinase still bound, per cent of control (STK4 (human)): 11%; kinase still bound, per cent of control (EPHB4 (human)): 100%; kinase still bound, per cent of control (CDK19 (human)): 0.8%; kinase still bound, per cent of control (STK24 (human)): 77%; kinase still bound, per cent of control (CLK2 (human)): 46%; kinase still bound, per cent of control (LCK (human)): 1.6%; kinase still bound, per cent of control (PKMYT1 (human)): 100%; kinase still bound, per cent of control (STK32C (human)): 100% |
| C[C@@H](Oc1cc(-n2cnc3ccc(CN4CCN(C)CC4)cc32)sc1C(N)=O)c1ccccc1C(F)(F)F | 24% | 100% | 11% | 40% | 100% | 1.2% | 76% | 100% | 66% | 97% | 78% | 74% | 4% | 99% | 48% | 100% | 78% | 17% | 100% | 78% | kinase still bound, per cent of control (BMPR1B (human)): 100%; kinase still bound, per cent of control (GSK3A (human)): 100%; kinase still bound, per cent of control (CDK15 (human)): 67%; kinase still bound, per cent of control (PIP5K1A (human)): 14%; kinase still bound, per cent of control (ACVR1 (human)): 100%; kinase still bound, per cent of control (AURKC (human)): 100%; kinase still bound, per cent of control (CAMK2A (human)): 4.9%; kinase still bound, per cent of control (FES (human)): 88%; kinase still bound, per cent of control (NEK2 (human)): 2.4%; kinase still bound, per cent of control (TGFBR1 (human)): 99%; kinase still bound, per cent of control (EPHA6 (human)): 92%; kinase still bound, per cent of control (STK4 (human)): 100%; kinase still bound, per cent of control (EPHB4 (human)): 100%; kinase still bound, per cent of control (CDK19 (human)): 100%; kinase still bound, per cent of control (STK24 (human)): 81%; kinase still bound, per cent of control (CLK2 (human)): 69%; kinase still bound, per cent of control (LCK (human)): 70%; kinase still bound, per cent of control (PKMYT1 (human)): 100%; kinase still bound, per cent of control (STK32C (human)): 100% |
